Laboratory results from ChEMBL document CHEMBL1201862, “PubChem BioAssay data set” (2004).
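In this assay, cells in 96-well plates receive the compound at five concentrations for 48 hours. Endpoints are linearly interpolated between the surrounding concentrations. GI50: concentration for 50% inhibition of growth.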 Calls of active or inactive are those of the source. Cut-off read from the data, not from the text of the source: active = GI50 up to about 1.1 µM and inactive = higher.

Key:
Test in all cases: NCI-60 cell line screen, 48 h
COLO 205 = tested on: COLO 205
KM12 = tested on: KM12
SF-268 = tested on: SF-268
PC-3 = tested on: PC-3
SN12C = tested on: SN12C
SK-MEL-28 = tested on: SK-MEL-28
UO-31 = tested on: UO-31
786-0 = tested on: 786-0
SW-620 = tested on: SW-620
A549 = tested on: A549
SK-MEL-5 = tested on: SK-MEL-5
UACC-62 = tested on: UACC-62
NCI/ADR-RES = tested on: NCI/ADR-RES
SNB-75 = tested on: SNB-75
RPMI-8226 = tested on: RPMI-8226
MDA-N = tested on: MDA-N
MCF7 = tested on: MCF7
CCRF-CEM = tested on: CCRF-CEM
EKVX = tested on: EKVX
OVCAR-4 = tested on: OVCAR-4
HOP-62 = tested on: HOP-62
SK-MEL-2 = tested on: SK-MEL-2
MDA-MB-231 = tested on: MDA-MB-231
OVCAR-8 = tested on: OVCAR-8
SR = tested on: SR
SF-295 = tested on: SF-295
SK-OV-3 = tested on: SK-OV-3
Hs-578T = tested on: Hs-578T
K562 = tested on: K562
HCT-116 = tested on: HCT-116
A498 = tested on: A498
MDA-MB-435 = tested on: MDA-MB-435
T47D = tested on: T47D
M14 = tested on: M14
HCC 2998 = tested on: HCC 2998
NCI-H460 = tested on: NCI-H460
HT-29 = tested on: HT-29
NCI-H23 = tested on: NCI-H23
MOLT-4 = tested on: MOLT-4
CAKI-1 = tested on: CAKI-1
U-251 = tested on: U-251
DU-145 = tested on: DU-145
OVCAR-3 = tested on: OVCAR-3
OVCAR-5 = tested on: OVCAR-5
LOX IMVI = tested on: LOX IMVI
IGROV-1 = tested on: IGROV-1
HL-60 = tested on: HL-60
RXF 393 = tested on: RXF 393
Malme-3M = tested on: Malme-3M
NCI-H522 = tested on: NCI-H522
ACHN = tested on: ACHN
SNB-19 = tested on: SNB-19
BT-549 = tested on: BT-549
HCT-15 = tested on: HCT-15
NCI-H226 = tested on: NCI-H226
UACC-257 = tested on: UACC-257
HOP-92 = tested on: HOP-92
SF-539 = tested on: SF-539
TK-10 = tested on: TK-10

SMILES: C=C(CCOC)CCC1CCCCC/C1=N\N(C)C (stereo not given)
- GI50 (COLO 205): > 100 µM (inactive)
- GI50 (KM12): > 100 µM (inactive)
- GI50 (SF-268): > 100 µM (inactive)
- GI50 (PC-3): > 100 µM (inactive)
- GI50 (SN12C): > 100 µM (inactive)
- GI50 (SK-MEL-28): > 100 µM (inactive)
- GI50 (UO-31): > 100 µM (inactive)
- GI50 (786-0): > 100 µM (inactive)
- GI50 (SW-620): > 100 µM (inactive)
- GI50 (A549): > 100 µM (inactive)
- GI50 (SK-MEL-5): > 100 µM (inactive)
- GI50 (UACC-62): > 100 µM (inactive)
- GI50 (NCI/ADR-RES): > 100 µM (inactive)
- GI50 (SNB-75): > 100 µM (inactive)
- GI50 (RPMI-8226): > 100 µM (inactive)
- GI50 (MDA-N): > 100 µM (inactive)
- GI50 (MCF7): > 100 µM (inactive)
- GI50 (CCRF-CEM): > 100 µM (inactive)
- GI50 (EKVX): > 100 µM (inactive)
- GI50 (OVCAR-4): > 100 µM (inactive)
- GI50 (HOP-62): > 100 µM (inactive)
- GI50 (SK-MEL-2): > 100 µM (inactive)
- GI50 (MDA-MB-231): > 100 µM (inactive)
- GI50 (OVCAR-8): > 100 µM (inactive)
- GI50 (SR): > 100 µM (inactive)
- GI50 (SF-295): > 100 µM (inactive)
- GI50 (SK-OV-3): > 100 µM (inactive)
- GI50 (Hs-578T): > 100 µM (inactive)
- GI50 (K562): > 100 µM (inactive)
- GI50 (HCT-116): > 100 µM (inactive)
- GI50 (A498): > 100 µM (inactive)
- GI50 (MDA-MB-435): > 100 µM (inactive)
- GI50 (T47D): > 100 µM (inactive)
- GI50 (M14): > 100 µM (inactive)
- GI50 (HCC 2998): > 100 µM (inactive)
- GI50 (NCI-H460): > 100 µM (inactive)
- GI50 (HT-29): > 100 µM (inactive)
- GI50 (NCI-H23): > 100 µM (inactive)
- GI50 (MOLT-4): > 100 µM (inactive)
- GI50 (CAKI-1): > 100 µM (inactive)
- GI50 (U-251): > 100 µM (inactive)
- GI50 (DU-145): > 100 µM (inactive)
- GI50 (OVCAR-3): > 100 µM (inactive)
- GI50 (OVCAR-5): > 100 µM (inactive)
- GI50 (LOX IMVI): > 100 µM (inactive)
- GI50 (IGROV-1): > 100 µM (inactive)
- GI50 (HL-60): > 100 µM (inactive)
- GI50 (RXF 393): > 100 µM (inactive)
- GI50 (Malme-3M): > 100 µM (inactive)
- GI50 (NCI-H522): > 100 µM (inactive)
- GI50 (ACHN): > 100 µM (inactive)
- GI50 (SNB-19): > 100 µM (inactive)
- GI50 (BT-549): > 100 µM (inactive)
- GI50 (HCT-15): > 100 µM
- GI50 (NCI-H226): > 100 µM (inactive)

SMILES: Cc1c[nH]c(C(=O)O)c1-c1cccn1-c1ccc(Cl)cc1[N+](=O)[O-]
- GI50 (COLO 205): > 100 µM (inactive)
- GI50 (KM12): 76.6 µM (inactive)
- GI50 (SF-268): > 100 µM (inactive)
- GI50 (PC-3): 49.9 µM (inactive)
- GI50 (SN12C): > 100 µM (inactive)
- GI50 (SK-MEL-28): > 100 µM (inactive)
- GI50 (UO-31): 45.9 µM (inactive)
- GI50 (786-0): > 100 µM (inactive)
- GI50 (SW-620): > 100 µM (inactive)
- GI50 (A549): 83.4 µM (inactive)
- GI50 (SK-MEL-5): > 100 µM (inactive)
- GI50 (UACC-62): > 100 µM (inactive)
- GI50 (NCI/ADR-RES): 72.3 µM (inactive)
- GI50 (SNB-75): > 100 µM (inactive)
- GI50 (MDA-N): > 100 µM (inactive)
- GI50 (MCF7): 69.7 µM (inactive)
- GI50 (CCRF-CEM): > 100 µM (inactive)
- GI50 (EKVX): > 100 µM (inactive)
- GI50 (OVCAR-4): > 100 µM (inactive)
- GI50 (HOP-62): 63.2 µM (inactive)
- GI50 (UACC-257): > 100 µM (inactive)
- GI50 (SK-MEL-2): > 100 µM (inactive)
- GI50 (MDA-MB-231): > 100 µM (inactive)
- GI50 (OVCAR-8): 61.7 µM (inactive)
- GI50 (SR): 99.3 µM (inactive)
- GI50 (HOP-92): 56 µM (inactive)
- GI50 (SF-295): 73.8 µM (inactive)
- GI50 (SK-OV-3): > 100 µM (inactive)
- GI50 (Hs-578T): > 100 µM (inactive)
- GI50 (K562): 73.8 µM (inactive)
- GI50 (HCT-116): > 100 µM (inactive)
- GI50 (A498): > 100 µM (inactive)
- GI50 (MDA-MB-435): > 100 µM (inactive)
- GI50 (T47D): > 100 µM (inactive)
- GI50 (M14): > 100 µM (inactive)
- GI50 (HCC 2998): > 100 µM (inactive)
- GI50 (NCI-H460): > 100 µM (inactive)
- GI50 (HT-29): > 100 µM (inactive)
- GI50 (NCI-H23): > 100 µM (inactive)
- GI50 (MOLT-4): 63.1 µM (inactive)
- GI50 (SF-539): > 100 µM (inactive)
- GI50 (CAKI-1): > 100 µM (inactive)
- GI50 (U-251): > 100 µM (inactive)
- GI50 (DU-145): > 100 µM (inactive)
- GI50 (OVCAR-3): 11.8 µM (inactive)
- GI50 (TK-10): > 100 µM (inactive)
- GI50 (OVCAR-5): > 100 µM (inactive)
- GI50 (LOX IMVI): > 100 µM (inactive)
- GI50 (IGROV-1): 36.3 µM (inactive)
- GI50 (RXF 393): 83 µM (inactive)
- GI50 (NCI-H522): 72.8 µM (inactive)
- GI50 (ACHN): > 100 µM (inactive)
- GI50 (BT-549): > 100 µM (inactive)
- GI50 (HCT-15): > 100 µM
- GI50 (NCI-H226): 92.3 µM (inactive)
